{
  "source": "patent US10022357B2",
  "about": "“Amyloid precursor protein MRNA blockers for treating Down syndrome and Alzheimer's disease” (THE GENERAL HOSPITAL CORPORATION, priority 2013, dated 2018)",
  "key": {"APP 5′UTR": {"tested_on": "APP 5′UTR", "assay_type": "cell-based, human", "method": "The LDDN library had already yielded small molecules that inhibit mesangial cell proliferation, following three-dimensional pharmacophore modeling and screening. A second Molecular Libraries Screening Centers Network HTS was conducted at the Columbia University Genome Center to generate hits as listed on PUBCHEM (AID: 1285), from which the dose-response assays identified 50 lead APP 5′UTR-directed luciferase reporter inhibitors. […] These were directly measured and found not to inhibit luciferase enzyme activity. […] These thirteen leads were tricyclic aromatic compounds that included two major classes of hits: compounds with a benzimidazole backbone, i.e. APP blockers 2, −7, and −9 (JTR-009) and compounds with a benzothiazole backbone, i.e. APP blockers −8 and −13. The compounds with a benzothiazole backbone were also identified to be similar to PFTα, another benzothiazole, and P53 inhibitor, by showing protection against oxidative injuries in synaptosomes from wild-type mice and preserving presynaptic terminals in cultured hippocampal neurons exposed to etoposide).\nAPP 5′UTR-Luciferase inhibitor compounds obtained from the preliminary HTS of pIRES-APP-5′UTR transfectants were picked, and the dose-response assays were conducted at 0.1, 1.0, and 5.0 μM (based on the exact molecular weights of the compounds). […] Each hit was added in 5 wells, and this was repeated twice on 2 different days. There was a positive control and negative control column of cells as previously described.\nTo identify APP 5′UTR-specific translation blockers from LDDN Harvard (see ref [21]) and from the Columbia University Genome center, the inventors then counter-screened against the PrP 5′UTR and shortlisted thirteen potent inhibitors to be further characterized. In FIG. 1D, the listed constructs were employed to conduct these transfection based assays to ensure that the 13 APP specific leads were not also PrP inhibitors. Table 1 lists the IC50 of each of these inhibitors with respect to their dose-responsive capacity to reduce APP 5′UTR-driven luciferase expression relative to their IC50 values against PrP 5′UTR expression."}, "APP and amyloid-beta [1]": {"tested_on": "APP and amyloid-beta", "details": "Table 2; Refs 27, 33; read-out: APP and amyloid-beta Inhibition (IC50); cited from earlier work"}, "APP mRNA": {"tested_on": "APP mRNA", "assay_type": "cell-based, human", "method": "(§1) qRT-PCR was conducted to measure the capacity of JTR-009 to change steady state levels of […] levels, as was previously described (see Ref [6]). Desferrioxamine treatment was used for a positive control to assess changes to the steady state levels of both APP mRNA and transferrin receptor mRNAs. Primers for β-actin were employed as a control for an mRNA previously shown to be unchanged by desferrioxamine and other inducers. Experiments were carried out on the ABI Prism 7000 sequence detection system (Applied Biosystems). […] The primers to β-actin, TfR1 were designed and ordered from Invitrogen. The APP primer set was purchased from Qiagen and has been benchmarked on several reports for accurate measurement of APP mRNA levels."}, "TfR mRNA": {"tested_on": "TfR mRNA", "assay_type": "cell-based, human", "details": "iron chelation, 25 μM, positive control", "method": "as §1"}, "α-synuclein (SNCA)": {"tested_on": "α-synuclein (SNCA)", "test": "Western blot of α-synuclein levels in primary mouse neurons", "experimental": "Primary cortical neurons from wild type mice and from the PAC-Tg(SNCA(wt) human SNCA genomic mice [22] were cultured as outlined by the method of Ray et al., 2009 [23]. The embryonic (E15-18) pups were recovered after sacrificing pregnant females, separated out the brain, and removed the meninges and blood vessels. The cortices were then dissected out and placed them in separate Eppendorf tubes containing 500 uL of HBSS without Ca+^2/Mg^+2 salts supplemented with 1 mM sodium pyruvate and 10 mM HEPES, pH 7.4. On ice, individual cells were isolated by titrating 10 times using a glass pasture pipette with the tip barely fire polished. The volume was adjusted to 1.5 mL, by adding 1 mL of HBSS with Ca^+2/Mg^+2 salts+Na. pyruvate+HEPES, restoring the divalent cations by adding HBSS so that the non-dispersed tissue could settle for 5 min, on ice. In the tissue culture laminar hood, the supernatant was transferred into a new 15 mL tube and centrifuged for 1 minute at 900 rpm, 4° C. The pellet was gently re-suspended in 2 mL of HBSS with Ca^+2/Mg^+2 salts+Na pyruvate+HEPES and took an aliquot for counting (2 mL for approx 5 embryos). The cells were then plated at ˜1×10^5 cells/well of a 24 well or 2×10^5/in 12 well plates. Each set of plates was coated with poly D-lysine containing poly L-lysine coverslips for micro immuncytochemical confirmation of neuronal integrity.\n(§3) After cells were exposed to increasing concentrations of the compounds as outlined in each figure legend, cytoplasmic protein lysates were prepared by homogenizing the cells in midRIPA buffer (25 mM Tris pH 7.4, 1% NP40, 0.5% sodium deoxycholate, 15 mM NaCl, protease inhibitors, RNase inhibitor and 10 μM DTT). Western blotting for APP was performed using the N-terminal 22C11 antibody (Millipore, Inc) and the A8717 C-terminal specific APP antibody (Sigma, inc), while αsyn was detected using mouse monoclonal anti-αsyn (BD Transduction Laboratories) and anti-β-actin (Chemicon). […] The bands were quantified using QuantityOne® software (BioRad)."}, "APP [2]": {"tested_on": "APP", "test": "Western blot of APP levels in primary mouse cortical neurons", "experimental": "Primary cortical neurons from wild type mice and from the PAC-Tg(SNCA(wt) human SNCA genomic mice [22] were cultured as outlined by the method of Ray et al., 2009 [23]. The embryonic (E15-18) pups were recovered after sacrificing pregnant females, separated out the brain, and removed the meninges and blood vessels. The cortices were then dissected out and placed them in separate Eppendorf tubes containing 500 uL of HBSS without Ca+^2/Mg^+2 salts supplemented with 1 mM sodium pyruvate and 10 mM HEPES, pH 7.4. On ice, individual cells were isolated by titrating 10 times using a glass pasture pipette with the tip barely fire polished. […]\nas §3"}, "APP and amyloid-beta [3]": {"tested_on": "APP and amyloid-beta", "assay_type": "cell-based", "details": "Table 2; printed in brackets as max; read-out: APP and amyloid-beta Inhibition (IC50), max"}, "APP [4]": {"tested_on": "APP", "experimental": "After cells were exposed to increasing concentrations of the compounds as outlined in each figure legend, cytoplasmic protein lysates were prepared by homogenizing the cells in midRIPA buffer (25 mM Tris pH 7.4, 1% NP40, 0.5% sodium deoxycholate, 15 mM NaCl, protease inhibitors, RNase inhibitor and 10 μM DTT). Western blotting for APP was performed using the N-terminal 22C11 antibody (Millipore, Inc) and the A8717 C-terminal specific APP antibody (Sigma, inc), while αsyn was detected using mouse monoclonal anti-αsyn (BD Transduction Laboratories) and anti-β-actin (Chemicon). The blots were developed using chemiluminescence (PIERCE, Rockford, Ill.) and visualized with a Phosphoimager (BioRad, Hercules, Calif.). The bands were quantified using QuantityOne® software (BioRad)."}, "PrP 5′UTR": {"tested_on": "PrP 5′UTR", "test": "cells", "details": "Homo sapiens, SH-SY5Y, read-out: IC50 to reduce 5′UTR driven luciferase expression in pIRES-PrP-5′UTR transfectants"}, "[5]": {"tested_on": "IRP1 and IRP2 binding to H-ferritin IRE", "test": "Biotinylated RNA pulldown assay, IRP1/IRP2 binding to H-ferritin IRE probe", "set-up": "species or system human", "details": "same conditions as APP IRE pulldown", "method": "(§2) Biotinylated RNA oligonucleotides: […] Paramagnetic streptavidin-conjugated Dynabeads (Invitrogen) were washed with ribonucleoprotein immunoprecipitation buffer, added into lysates to bind IRP(1/2)-biotinylated-RNA complexes, and incubated for 1 hour at room temperature. After five washes, the proteins that bound to the beads were analyzed by Western blotting for IRP1, IRP2, and biotin. […] The IREs-bound IRPs were quantified by Quantity One® software (Bio-Rad)."}, "IRP1 binding to APP IRE": {"tested_on": "IRP1 binding to APP IRE", "test": "Biotinylated RNA pulldown assay, IRP1 binding to APP IRE probe", "set-up": "species or system human", "method": "as §2"}},
  "note": "“Also recorded” adds a separate entry of the source. Read-outs that look alike come from different tables or passages of the source.",
  "data": [
    {"smiles": "CN1CC[C@]2(C)c3cc(OC(=O)Nc4ccccc4)ccc3N(C)[C@H]12", "note": "[posiphen, reference compound]", "values": [
      {"measurement": "increase of APP 5′UTR activity", "setting": "APP 5′UTR; 0.1 μM drug, matched conditions", "result": 15, "unit": "%"},
      {"measurement": "IC50", "setting": "APP 5′UTR; FIG. 4A, dose response, N=4, read-out: IC50 to limit APP 5′UTR-luciferase expression", "result": 5000, "unit": "nM"},
      {"measurement": "IC50", "setting": "APP and amyloid-beta [1]", "result": 1000, "unit": "nM"}
    ]},
    {"smiles": "COc1cc(SC)ccc1C(=O)Nc1nc2ccccc2[nH]1", "note": "[BL-1]", "values": [
      {"measurement": "concentration to inhibit APP 5′UTR conferred translation, times less than strophanthidin", "setting": "APP 5′UTR; FIG. 8, relative to strophanthidin", "result": 500, "unit": "times"}
    ]},
    {"smiles": "CC(=O)N(O)CCCCCNC(=O)CCC(=O)N(O)CCCCCNC(=O)CCC(=O)N(O)CCCCCN", "note": "[desferrioxamine, reference compound]", "values": [
      {"measurement": "APP mRNA levels", "setting": "APP mRNA; iron chelation with desferrioxamine", "result": "unchanged"},
      {"measurement": "increase of transferrin receptor mRNA levels", "setting": "TfR mRNA", "result": 2, "unit": "fold"}
    ]},
    {"smiles": "Cc1ccc2[nH]c(-c3ccc(N)cc3)nc2c1", "note": "[JTR-009, 4-(5-methyl-1H-benzimidazol-2yl) aniline]", "values": [
      {"measurement": "average pair-wise reduction of SNCA levels (threshold)", "setting": "α-synuclein (SNCA); 0.001 μM, 48 hours", "result": 50, "unit": "%"},
      {"measurement": "α-synuclein (SNCA) levels", "setting": "α-synuclein (SNCA); primary mouse neurons, same treatment as APP reduction", "result": "unchanged; also recorded: no significant changes"},
      {"measurement": "reduction of APP levels", "setting": "APP [2]; concentrations as low as 10 nM, primary mouse cortical neurons", "result": 60, "unit": "%"},
      {"measurement": "lowest dose that inhibited APP levels", "setting": "APP [2]; primary mouse E-18 neurons", "result": 1, "unit": "nM"},
      {"measurement": "IC50", "setting": "APP and amyloid-beta [3]", "result": 10, "unit": "nM"},
      {"measurement": "concentration that limits APP translation", "setting": "APP [4]", "result": "less than one"},
      {"measurement": "reduction of APP in lysate supernatants of RNA pulldown", "setting": "APP [4]; 3 μM", "result": 35, "unit": "%"},
      {"measurement": "reduction of APP (densitometry, β-actin standardized)", "setting": "APP [4]; 20 μM, 48 hour treatment", "result": 50, "unit": "%"},
      {"measurement": "reduction of APP in lysate supernatants of RNA pulldown", "setting": "APP [4]; 30 μM", "result": 70, "unit": "%"},
      {"measurement": "APP levels, percent of control levels", "setting": "APP [4]; 30 μM, 48 hours, N=5", "result": 30, "unit": "%"},
      {"measurement": "IC50", "setting": "APP [4]; read-out: IC50 for translational inhibition of APP, dose-responsive assays", "result": "< 1000", "unit": "nM"},
      {"measurement": "IC50", "setting": "PrP 5′UTR", "result": 4000, "unit": "nM"},
      {"measurement": "reduction of APP 5′UTR activity", "setting": "APP 5′UTR; 0.1 μM drug, N=4", "result": "two-fold"},
      {"measurement": "IC50", "setting": "APP 5′UTR; Homo sapiens, SH-SY5Y, 384-plate assays, inhibition curves, first IC50 line of Table 1, read-out: IC50 to reduce 5′UTR driven luciferase expression in pIRES-APP-5′UTR transfectants", "result": 400, "unit": "nM"},
      {"measurement": "IC50", "setting": "APP 5′UTR; Homo sapiens, SH-SY5Y, FIG. 4A, dose response, N=4, read-out: IC50 to limit APP 5′UTR-luciferase expression", "result": 100, "unit": "nM"},
      {"measurement": "IC50", "setting": "APP 5′UTR; Homo sapiens, SH-SY5Y, Table 2, read-out: APP 5′UTR Inhibition (IC50)", "result": 100, "unit": "nM"},
      {"measurement": "IC50", "setting": "APP 5′UTR; Homo sapiens, SH-SY5Y, dose-responsive measurements, range, read-out: IC50 against the APP 5′UTR", "result": "1 to 100", "unit": "nM"},
      {"measurement": "fold more potent/effective than posiphen to limit APP 5′UTR driven translation", "setting": "APP 5′UTR; relative to posiphen, listed as Formula I", "result": "about 10 fold"},
      {"measurement": "IRP1/IRP2 binding to H-ferritin IRE probes", "setting": "[5]", "result": "always maintained; also recorded: no inhibitory change"},
      {"measurement": "reduction of IRP1 binding to biotinylated APP IRE RNA probes", "setting": "IRP1 binding to APP IRE; 0.3 μM, N=7", "result": 20, "unit": "%"},
      {"measurement": "fold reduction of IRP1 binding to the APP IRE", "setting": "IRP1 binding to APP IRE; 3 μM, 48 hour exposure", "result": 2, "unit": "fold"},
      {"measurement": "reduction of IRP1 binding to biotinylated APP IRE RNA probes", "setting": "IRP1 binding to APP IRE; 3 μM, N=7", "result": 50, "unit": "%"},
      {"measurement": "IRP1 binding to biotinylated APP IRE RNA probes", "setting": "IRP1 binding to APP IRE; 30 μM, N=7", "result": "completely inhibited"},
      {"measurement": "APP mRNA levels", "setting": "APP mRNA; 0.1 nM to 10 μM drug, N=4", "result": "unchanged"},
      {"measurement": "increase of APP mRNA levels", "setting": "APP mRNA; 100 μM", "result": "~10", "unit": "%"}
    ]}
  ]
}
